Source: US8283337B2, “Therapeutic or prophylactic agent for vasoconstriction” (Next21 K.K., priority 2007, dated 2012)

Key:
[1] = test system: rat macrophage-like cells (RAW264.7); assay: Vasospastic cell model, PGE2/PGD2 production by ELISA after erythrocyte lysis solution; format: cell-based; details: blood pretreated with 10 wt % sugar, medium 5 wt % sugar, lysis solution 18 hours
Description: A vasospastic cell model was constructed by using […] macrophage-like cells (RAW264.7) for study on whether trehalose has anti-inflammatory action.
Physiological saline (Sal), 10 wt % trehalose (Tre) and 10 wt % maltose (Mal) were added respectively to the blood collected from a rat (10 to 12 weeks of age, male) for pretreatment, and the mixture was processed in an ultrasonic homogenizer, to prepare an erythrocyte lysis solution. 1×10^6 or 2×10^6 of RAW264.7 cells were inoculated on a plate on the day before addition of the lysis solution, and were cultured in a medium comprising physiological saline, 5 wt % trehalose and 5 wt % maltose (respectively, as abbreviated to Sal, Tre and Mal) placed in an incubator (37° C., CO2: 5%). The culture medium used was Dulbecco's Modified Eagle Medium (D-MEM) comprising 10% fetal bovine serum (FBS), penicillin and streptomycin. The next day, the lysis solution was added in an amount of 1/10 of the medium, and the mixture was incubated in the incubator (37° C., CO2: 5%) for 18 hours. Then, the cells were washed with PBS; new medium was added; and the mixture was placed in the incubator (37° C., CO2: 5%). The medium was collected after one hour for ELISA analysis. The ELISA was carried out by using Prostaglandin E2 EIA kit-monoclonal (manufactured by Cayman) or Prostaglandin D2 EIA kit (manufactured by Cayman). […] For control, a lysis solution-untreated group (added respectively with physiological saline, trehalose and maltose) was also analyzed similarly (FIG. 8, FIG. 9: right column 3). Three or more independent tests were carried out to obtain the average, and the standard deviation obtained was expressed with error bars.

[2] = test system: normal human umbilical vein endothelial cells (HUVEC); assay: Vasospastic cell model, PGE2 production by ELISA after erythrocyte lysis solution; format: cell-based; details: lysis solution from blood pretreated with 10 wt % sugar, 6 hours
Description: A vasospastic cell model was constructed by using normal human umbilical vein endothelial cells (HUVEC), for study on whether trehalose has anti-inflammatory action.
Physiological saline (Sal), 10 wt % trehalose (tre) and 10 wt % maltose (Mal) were added respectively to the bloods collected from a rat (10 to 12 weeks of age, male) for pretreatment, and the mixture was processed in an ultrasonic homogenizer, to prepare an erythrocyte lysis solution. The HUVEC cells were inoculated on a plate in an amount of 1×10^5 cells on the day before the addition of the lysis solution and were cultured in an incubator (37° C., CO2: 5%). The culture medium used was endothelial cell basic medium (EBM-2) comprising 2% fetalbovine serum (FBS), hEGF (human epidermal growth factor), heparin, hydrocortisone, ascorbic acid, VEGF (vascular endothelial growth factor), R3-IGF-1 (recombinant insulin-like growth factor-1), gentamicin and amphotericin-B. The next day, the lysis solution in an amount of 1/10 of the medium was added to the HUVEC cells, and the mixture was incubated in an incubator (37° C., CO2: 5%) for 6 hours. The medium was then collected for ELISA analysis. […] The lysis solution-untreated group (added respectively with physiological saline, trehalose and maltose) was also analyzed similarly as a control group (FIG. 10: right column 3). […]

basilar artery = assay: Rabbit subarachnoid hemorrhage model, histological analysis of basilar artery; format: in vivo; details: group II, self blood + 15 wt % trehalose solution
Description: The vasospasm-inhibiting action of trehalose was analyzed via a histological method by using a rabbit subarachnoid hemorrhage model.
After the occipital region of a NZW rabbit (14 weeks of age, approximately 3.0 kg, male) was shaved and the cisterna magna was punctured, blood samples [group I: self blood+physiological saline (blood+Sal), group II: self blood+15 wt % trehalose solution (blood+Tre) and group III: physiological saline (Sal)] were injected into different test animals respectively in an amount of 3 ml. Additionally, 2 ml of blood sample and physiological saline (total of 5 ml) were injected to the same test animal by a similar method, two days later. Two days after the second administration, the animals were perfused with 4% paraformaldehyde for stabilization, and the brain stem and the basilar arteries were collected. The tissue was embedded in paraffin, cut into a section of 5 μm in thickness, and observed after hematoxylin-eosin staining (HE staining) The results are shown in FIG. 12.

femoral artery = assay: Vasospasm model using rat femoral artery exposed to self blood; format: in vivo; details: 7 days after exposure; for arterial sectional area relative to saline-exposed artery: SD rat femoral artery
From the text: Twenty seven male SD rats of 10 weeks of age were divided into three groups randomly. These rats were properly anesthetized. The groin was cut open and then the femoral artery was divided and separated sufficiently from the surrounding soft tissue etc. The femoral artery was covered with a catheter. The catheter used was a 10 mm-length vinyl chloride cylindrical catheter. Self blood collected from femoral vein was fed into the space between the catheter and vascular adventitia and the bottom face of the cylinder was sealed with an adhesive agent. The adhesive agent used was a cyanoacrylate-based adhesive agent. The operations above were carried out aseptically and surgically. Then, the surgical injury was closed. The lumen of the blood-exposed femoral artery narrowed and the tunica intima and tunica media thickened, after peaking in about 7 days after exposure. This model is a model according to “Nakamura et al., Japan Neurosurgical Society, Abstract of 49th Annual Meeting 199, 1990”.
Left and right femoral arteries (FAs) of each rat were exposed to the substances shown in the following Table 1 by using the model above. 4% paraformaldehyde (PFA) solution was perfused, 7 days after commencement of exposure and each femoral artery was fixed and collected. The collected femoral artery (FA) was immersed in 4% PFA, and part of the femoral artery was immersed in sucrose solution and then embedded as frozen. A section of 5 μm in thickness was obtained with cryostat from the frozen femoral artery thus obtained. The section was subjected to hematoxylin-eosin staining (HE staining). The HE-stained sample was analyzed by using an image analyzer equipped with an image analysis program, and the sectional area of the lumen and the thickness of the tunica media in each tissue were determined. The radius of the blood vessel was determined from the peripheral length of the lumen of the blood vessel, and the lumen sectional area was calculated from it. In addition, the distance between the internal and external elastic layers was measured at four points, and the average thereof was determined, to obtain the thickness of the tunica media. There were cases when the blood vessel was cleaved or was not sufficiently fixed during analysis, and thus 6 samples, which were analyzed under favorable conditions, among 9 samples prepared in each group, were selected for collection of data.

cerebral vasospasm = assay: Rabbit subarachnoid hemorrhage model, intracerebral blood flow by perfusion-MRI; format: in vivo; details: group II, self blood + 15 wt % trehalose solution into cisterna magna, two days after second administration; blood + saline group approximately 60%
Description: Intracerebral blood flow was evaluated via perfusion-MRI method by using a rabbit subarachnoid hemorrhage model for analysis of the vasospasm-inhibiting action of trehalose.
After magnetic resonance imaging (MRI) of a NZW rabbit (14 weeks of age, approximately 3.0 kg, male) in the normal state, the occipital region was shaved and the cisterna magna was punctured, and blood samples [group I: self blood+physiological saline (blood+Sal), group II: self blood+15 wt % trehalose solution (blood+Tre) and group III: physiological saline (Sal)] were injected into different test animals respectively in an amount of 3 ml. Additionally, 2 ml of blood sample and physiological saline (total of 5 ml) were injected to the same test animals by a similar method, two days later. Two days after the second administration, the influence of trehalose on cerebral vasospasm was evaluated via perfusion-MRI method (cerebrovascular normality is calculated by injecting a contrast medium through otic vein into the brain and determining the degree of recovery in brightness quantitatively) by using a high-definition MRI apparatus for animals (4.7 tesla, resolution: 50 μm) manufactured by Varian. Three independent tests were carried out to obtain the average, and the standard deviation obtained was expressed with error bars.

[3] = two days after second administration

Row | Structure (SMILES) | amount of PGD2 produced versus lysis solution-untreated control group [1] | amount of PGE2 produced versus lysis solution-untreated control group [1] | PGE2 production (induction of inflammatory reaction) versus lysis solution-untreated control group [2] | vasospasm with respect to group I (self blood + physiological saline) (basilar artery; basilar artery histology) | blood vessel diameter of basilar artery (HE staining) (basilar artery; [3]) | tunica media thickness of basilar artery (HE staining) (basilar artery; [3]) | arterial sectional area relative to saline-exposed artery (femoral artery; group II, trehalose 3.75 wt % (blood:15% TL solution = 3:1)) | tunica media thickness (after exposure to blood + trehalose / after exposure to physiological saline) (femoral artery; group II, trehalose 3.75 wt %) | arterial sectional area relative to saline-exposed artery (femoral artery; group III, trehalose 7.5 wt % (blood:30% TL solution = 3:1)) | tunica media thickness (after exposure to blood + trehalose / after exposure to physiological saline) (femoral artery; group III, trehalose 7.5 wt %) | normality of cerebral blood vessel (brightness after treatment/before treatment), physiological saline group = 100% (cerebral vasospasm)
1 | OC[C@H]1O[C@H](O[C@H]2[C@H](O)[C@@H](O)C(O)O[C@@H]2CO)[C@H](O)[C@@H](O)[C@@H]1O (mixture of isomers) [maltose, reference compound] | inflammatory reaction was also induced | inflammatory reaction was also induced | inflammatory reaction was induced | – | – | – | – | – | – | – | –
2 | OC[C@H]1O[C@H](O[C@H]2O[C@H](CO)[C@@H](O)[C@H](O)[C@H]2O)[C@H](O)[C@@H](O)[C@@H]1O [trehalose] | not increased | not increased | induction of inflammatory reaction was suppressed | suppressed definitely | no reduction of the blood vessel diameter | some increase in tunica media thickness | 86% | 0.93 times | 39% | 1.74 times | approximately 80%
